Laboratory results reported in the supplement of paper PMC13380429.
± gives the standard deviation of the averaged measurements.

Assays:
Settings in all cases: 72 h
[1] = tested on: Caco-2; assay: drug sensitivity score (DSS) for viability; higher = more toxic; extreme values may be limits of the assay
[2] = tested on: U2OS; assay: as above
[3] = tested on: Calu-3; assay: as above
[4] = tested on: Vero E6; assay: as above
[5] = tested on: HepG2; assay: as above
[6] = tested on: Caco-2; assay: relative viability EC50 (midpoint between 100% and the lowest measured viability); higher = less toxic
[7] = tested on: U2OS; assay: as above
[8] = tested on: Calu-3; assay: as above
[9] = tested on: Vero E6; assay: as above
[10] = tested on: HepG2; assay: as above
[11] = tested on: Caco-2; assay: cell viability relative to DMSO; higher = less toxic
[12] = tested on: U2OS; assay: as above
[13] = tested on: Calu-3; assay: as above
[14] = tested on: Vero E6; assay: as above
[15] = tested on: HepG2; assay: as above

Row | SMILES | drug sensitivity score [1] | drug sensitivity score [2] | drug sensitivity score [3] | drug sensitivity score [4] | drug sensitivity score [5] | relative viability EC50 [6] | relative viability EC50 [7] | relative viability EC50 [8] | relative viability EC50 [9] | relative viability EC50 [10] | cell viability ([11]; 1 nM) | cell viability ([11]; 10 nM) | cell viability ([11]; 100 nM) | cell viability ([11]; 1000 nM) | cell viability ([11]; 10000 nM) | cell viability ([12]; 1 nM) | cell viability ([12]; 10 nM) | cell viability ([12]; 100 nM) | cell viability ([12]; 1000 nM) | cell viability ([12]; 10000 nM) | cell viability ([13]; 1 nM) | cell viability ([13]; 10 nM) | cell viability ([13]; 100 nM) | cell viability ([13]; 1000 nM) | cell viability ([13]; 10000 nM) | cell viability ([14]; 1 nM) | cell viability ([14]; 10 nM) | cell viability ([14]; 100 nM) | cell viability ([14]; 1000 nM) | cell viability ([14]; 10000 nM) | cell viability ([15]; 1 nM) | cell viability ([15]; 10 nM) | cell viability ([15]; 100 nM) | cell viability ([15]; 1000 nM) | cell viability ([15]; 10000 nM)
1 | C[C@]12CC[C@@H](O)C[C@H]1CC[C@@H]1[C@@H]2CC[C@]2(C)C(=O)CC[C@@H]12 [3-alpha-hydroxy-5-beta-androstan-17-one] | 0.233 ± 0.4 | 0 | 0 | 0 | 0.233 ± 0.4 | > 10 µM | > 10 µM | > 10 µM | > 10 µM | > 10 µM | 97.8 ± 5% | 104 ± 14% | 97.6 ± 4.1% | 98.8 ± 3.4% | 92.9 ± 15% | 102 ± 2.1% | 97.8 ± 1.6% | 102 ± 2.6% | 98.6 ± 2.8% | 99.9 ± 3.2% | 99.6 ± 4.8% | 97.4 ± 4% | 96.1 ± 3.2% | 97.8 ± 6.8% | 101 ± 3.2% | 99.8 ± 2.9% | 101 ± 1.3% | 103 ± 3.8% | 103 ± 2.3% | 94.3 ± 1.5% | 101 ± 8.8% | 96.6 ± 5.6% | 102 ± 5.1% | 104 ± 7.5% | 87.4 ± 9.7%
2 | CN(C)CC[C@H](CSc1ccccc1)Nc1ccc(S(=O)(=O)NC(=O)c2ccc(N3CCN(Cc4ccccc4-c4ccc(Cl)cc4)CC3)cc2)cc1[N+](=O)[O-] [ABT-737] | 0.3 |  | 4 | 0 | 0 | > 10 µM |  | 2.52 µM | > 10 µM | > 10 µM | 104% | 92.4% | 105% | 101% | 83.8% |  |  |  |  |  | 115% | 99.1% | 114% | 95.2% | 39.3% | 97.2% | 98.6% | 95.3% | 96% | 95.1% | 109% | 111% | 104% | 95.8% | 93%
3 | O=C(O)CCCN1CCC(O[C@@H](c2ccc(Cl)cc2)c2ccccn2)CC1 [bepotastine] | 0 |  | 0 | 0 | 0 | > 10 µM |  | > 10 µM | > 10 µM | > 10 µM | 91.3% | 92.1% | 99.4% | 93.4% | 107% |  |  |  |  |  | 97% | 106% | 94.2% | 93.8% | 113% | 93.2% | 98.3% | 90.2% | 95.8% | 105% | 98.7% | 113% | 99% | 102% | 113%
4 | COc1cc(C(=O)NCCCCCC(=O)O)cc(OC)c1OC [capobenic-acid] | 3.1 | 0 | 0 | 0 |  | > 10 µM | > 10 µM | > 10 µM | > 10 µM |  | 110% | 111% | 96.7% | 80.2% | 93.5% | 97% | 103% | 94.7% | 111% | 94% | 96.3% | 94.9% | 94.5% | 104% | 98.6% | 103% | 101% | 99% | 101% | 94.6% |  |  |  |  | 
